These results are taken from patent publication US20060211698A1, “Bicyclic heteroaryl derivatives for treating viruses” (Genelabs, Inc., priority 2005, published 2006).

The target in this experiment is T1, HCV-NS5b (Hepatitis C virus genotype 1b, UniProt Q9WMX2).
T1 construct: The cloned fragment was missing the C terminus 21 amino acid residues; (His)6 (C); made in house; host or cells: XL-1 cells (E. coli)
Briefly: HCV-NS5b Enzyme Assay. It is filed as biochemical. The settings on record: 1 μM test compound; incorporation of [3H]-UTP, 37° C., 2 hours. The method, boiled down:
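The NS5B construct lacks its C-terminal 21 residues, carries a C-terminal His6 tag and was expressed in E. coli. [^3H]-UTP incorporation on a biotinylated HCV heteropolymeric template (10 ng/μL) with 10 μM each NTP, pH 7.5, 5 mM MgCl2 and 5% DMSO ran 2 h at 37° C and was read by SPA scintillation. IC50s came from 10-point 2-fold series starting at 50 or 2 μM.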
`O=C(O)c1ccc2c(C3CCCCC3)c(-c3ccc4nc(-c5ccc(-n6ccnc6)cc5)ccc4c3)n(CC(=O)N3CCOCC3)c2c1` [Compound 209, 1-[N-morpholinocarbonylmethyl]-2-[2-(4-(1H-imidazolyl)phenyl)-quinolin-6-yl]-3-cyclohexyl-1H-indole-6-carboxylic acid]: the “% inhibition @ 1 μM” value turned out to be 98.5%. Consider `Cc1nc(C)c(-c2ccc3cc(-c4[nH]c5cc(C(=O)O)ccc5c4C4CCCCC4)ccc3n2)s1` [Compound 333, 3-Cyclohexyl-2-[2-(2,4-dimethyl-thiazol-5-yl)-quinolin-6-yl]-1H-indole-6-carboxylic acid], for which the inhibition – broadly, the change of the read-out against control, counted positive when it falls – at 1 µM turned out to be 95.1%. Turning to `Cc1nc(C)c(-c2ccc3cc(-c4c(C5CCCCC5)c5ccc(-c6nnn[nH]6)cc5n4CC(=O)N4CCOCC4)ccc3n2)s1` [Compound 244, 2-[3-Cyclohexyl-2-[2-(2,4-dimethyl-thiazol-5-yl)-quinolin-6-yl]-6-(1H-tetrazol-5-yl)-indol-1-yl]-1-morpholin-4-yl-ethanone], the inhibition at 1 µM amounted to 97.2%.

On to `Cc1ccnc(-c2ccc3cc(-c4c(C5CCCCC5)c5ccc(C(=O)O)cc5n4CC(=O)N4CCOCC4)ccc3n2)c1` [Compound 249, 3-Cyclohexyl-2-[2-(4-methyl-pyridin-2-yl)-quinolin-6-yl]-1-(2-morpholin-4-yl-2-oxo-ethyl)-1H-indole-6-carboxylic acid], for which the inhibition at 1 µM was found to be 99.5%. Regarding `COc1cccc(-c2ccc3cc(-c4c(C5CCCCC5)c5ccc(C(=O)O)cc5n4CC(=O)N4CCOCC4)ccc3n2)c1` [Compound 221, 3-Cyclohexyl-2-[2-(3-methoxy-phenyl)-quinolin-6-yl]-1-(2-morpholin-4-yl-2-oxo-ethyl)-1H-indole-6-carboxylic acid], the inhibition at 1 µM is 99.6%.

As to `Cc1nc(C)c(-c2ccc3cc(-c4c(C5CCCCC5)c5ccc(C(=O)NCCc6nnn[nH]6)cc5n4CC(=O)N4CCOCC4)ccc3n2)s1` [Compound 245, 3-Cyclohexyl-2-[2-(2,4-dimethyl-thiazol-5-yl)-quinolin-6-yl]-1-(2-morpholin-4-yl-2-oxo-ethyl)-1H-indole-6-carboxylic acid [2-(1H-tetrazol-5-yl)-ethyl]-amide], the inhibition at 1 µM came to 91.3%. Regarding `Cc1nc(C)c(-c2ccc3cc(-c4c(C5CCCCC5)c5ccc(C(=O)O)cc5n4CC(=O)N4CCOCC4)cnc3n2)s1` [Compound 319, 3-Cyclohexyl-2-[7-(2,4-dimethyl-thiazol-5-yl)-[1,8]naphthyridin-3-yl]-1-(2-morpholin-4-yl-2-oxo-ethyl)-1H-indole-6-carboxylic acid], the inhibition at 1 µM amounted to 74.3%. With `O=C(O)c1ccc2c(C3CCCCC3)c(-c3ccc4nc(-c5cncs5)ccc4c3)n(CC(=O)N3CCOCC3)c2c1` [Compound 331, 3-Cyclohexyl-1-(2-morpholin-4-yl-2-oxo-ethyl)-2-(2-thiazol-5-yl-quinolin-6-yl)-1H-indole-6-carboxylic acid], the inhibition at 1 µM was 97%. As to `COc1ccncc1-c1ccc(-c2c(C3CCCCC3)c3ccc(C(=O)O)cc3n2CC(=O)O)cc1` [Compound 308, 1-Carboxymethyl-3-cyclohexyl-2-[4-(4-methoxy-pyridin-3-yl)-phenyl]-1H-indole-6-carboxylic acid], the inhibition at 1 µM turned out to be 97.5%. As to `Cc1nc(C)c(-c2ccc3cc(-c4c(C5CCCCC5)c5ccc(C(=O)O)cc5n4CC(=O)NCC(=O)O)ccc3n2)s1` [Compound 213, 1-[(N-carboxymethycarbamoyl)-methyl]-[2-(2,4-dimethyl-thiazol-5-yl)-quinolin-6-yl]-3-cyclohexyl-1H-indole-6-carboxylic acid], the “% inhibition @ 1 μM” value was found to be 92.1%. As to `Cc1ccsc1-c1ccc2cc(-c3c(C4CCCCC4)c4ccc(C(=O)O)cc4n3CC(=O)N3CCOCC3)ccc2n1` [Compound 229, 3-Cyclohexyl-2-[2-(3-methyl-thiophen-2-yl)-quinolin-6-yl]-1-(2-morpholin-4-yl-2-oxo-ethyl)-1H-indole-6-carboxylic acid], the inhibition at 1 µM came to 96.5%. As to `O=C(O)c1ccc2c(C3CCCCC3)c(-c3ccc4nc(-c5ccsc5)ccc4c3)n(CC(=O)N3CCOCC3)c2c1` [Compound 228, 1-[N-morpholinocarbonylmethyl]-2-[2-thien-3-ylquinolin-6-yl]-3-cyclohexyl-1H-indole-6-carboxylic acid], the “% inhibition @ 1 μM” value was determined as 96.2%. In the case of `Cc1nc(C)c(-c2ccc3cc(-c4c(C5CCCCC5)c5ccc(C(=O)O)cc5n4CC(=O)N4C(C)COCC4C)ccc3n2)s1` (stereo not shown) [Compound 279, 3-Cyclohexyl-1-[2-(3,5-dimethyl-morpholin-4-yl)-2-oxo-ethyl]-2-[2-(2,4-dimethyl-thiazol-5-yl)-quinolin-6-yl]-1H-indole-6-carboxylic acid], the inhibition at 1 µM came to 100%. Regarding `Cc1nc(C)c(-c2ccc3cc(-c4c(C5CCCCC5)c5ccc(C(=O)NCCC#N)cc5n4CC(=O)N4CCOCC4)ccc3n2)s1` [Compound 242, 3-Cyclohexyl-2-[2-(2,4-dimethyl-thiazol-5-yl)-quinolin-6-yl]-1-(2-morpholin-4-yl-2-oxo-ethyl)-1H-indole-6-carboxylic acid (2-cyano-ethyl)-amide], the inhibition at 1 µM came out at 63.6%. In the case of `Cc1nc(C)c(-c2nc3ccc(-c4c(C5CCCCC5)c5ccc(C(=O)O)cc5n4CC(=O)N4CCOCC4)cc3[nH]2)s1` [Compound 320, 3-Cyclohexyl-2-[2-(2,4-dimethyl-thiazol-5-yl)-3H-benzoimidazol-5-yl]-1-(2-morpholin-4-yl-2-oxo-ethyl)-1H-indole-6-carboxylic acid], the inhibition at 1 µM was determined as 84.1%.

Turning to `Cc1cc(-c2ccc3cc(-c4c(C5CCCCC5)c5ccc(C(=O)O)cc5n4CC(=O)N4CCOCC4)ccc3n2)c(C)s1` [Compound 258, 3-Cyclohexyl-2-[2-(2,5-dimethyl-thiophen-3-yl)-quinolin-6-yl]-1-(2-morpholin-4-yl-2-oxo-ethyl)-1H-indole-6-carboxylic acid], the inhibition at 1 µM came to 97.4%.

As to `COc1ccc(-c2ccc(Cl)cc2)c(-c2ccc3cc(-c4[nH]c5cc(C(=O)O)ccc5c4C4CCCCC4)ccc3n2)c1` [Compound 200, 2-[2-(4′-chloro-4-methoxy-biphenyl-2-yl)-quinolin-6-yl]-3-cyclohexyl-1H-indole-6-carboxylic acid], the inhibition at 1 µM is 96.2%. On to `O=C(O)c1ccc2c(C3CCCCC3)c(-c3ccc4nc(-c5ccco5)ccc4c3)n(CC(=O)N3CCOCC3)c2c1` [Compound 222, 1-[N-morpholinocarbonylmethyl]-2-(2-furan-2-yl-quinolin-6-yl)-3-cyclohexyl-1H-indole-6-carboxylic acid], for which the “% inhibition @ 1 μM” value turned out to be 92.3%. For the molecule `O=C(O)c1ccc2c(C3CCCCC3)c(-c3ccc(-c4ccc5cc(Br)ccc5n4)cc3)n(CC(=O)N3CCOCC3)c2c1` [Compound 298, 2-[4-(6-Bromo-quinolin-2-yl)-phenyl]-3-cyclohexyl-1-(2-morpholin-4-yl-2-oxo-ethyl)-1H-indole-6-carboxylic acid], the inhibition at 1 µM was determined as 101%.
